Reference: patent US8044073B2, “Aminobenzimidazoles and benzimidazoles as inhibitors of respiratory syncytial virus replication” (Tibotec Pharmaceuticals, priority 2003, dated 2011)

Tested on: Respiratory Syncytial Virus
Assay: In vitro screening for activity against RSV (tetrazolium-based colorimetric assay, protection against viral cytopathology)
Type: cell-based
Conditions: Table 1; RSV in HeLa cells, MTT, seven days after infection; pEC50 = -log of EC50 in molar units
Excerpt: The percent protection against cytopathology caused by viruses (antiviral activity or EC50) achieved by tested compounds and their cytotoxicity (CC50) are both calculated from dose-response curves. The selectivity of the antiviral effect is represented by the selectivity index (SI), calculated by dividing the CC50 (cytotoxic dose for 50% of the cells) by the EC50 (antiviral activity for 50% of the cells). The tables in the above experimental part list the category to which each of the prepared compounds belong: Compounds belonging to activity category “A” have a pEC50 (−log of EC50 when expressed in molar units) equal to or more than 7. Compounds belonging to activity category “B” have a pEC50 value between 6 and 7.
Automated tetrazolium-based colorimetric assays were used for determination of EC50 and CC50 of test compounds. Flat-bottom, 96-well plastic microtiter trays were filled with 180 μl of Eagle's Basal Medium, supplemented with 5% FCS (0% for FLU) and 20 mM Hepes buffer. Subsequently, stock solutions (7.8× final test concentration) of compounds were added in 45 μl volumes to a series of triplicate wells so as to allow simultaneous evaluation of their effects on virus- and mock-infected cells. Five five-fold dilutions were made directly in the microtiter trays using a robot system. Untreated virus controls, and HeLa cell controls were included in each test. Approximately 100 TCID50 of Respiratory Syncytial Virus was added to two of the three rows in a volume of 50 μl. The same volume of medium was added to the third row to measure the cytotoxicity of the compounds at the same concentrations as those used to measure the antiviral activity. After two hours of incubation, a suspension (4×10^5 cells/ml) of HeLa cells was added to all wells in a volume of 50 μl. The cultures were incubated at 37° C. in a 5% CO2 atmosphere. Seven days after infection the cytotoxicity and the antiviral activity was examined spectrophotometrically. To each well of the microtiter tray, 25 μl of a solution of MTT (3-(4,5-dimethylthiazol-2-yl)-2,5-diphenyltetrazolium bromide) was added. The trays were further incubated at 37° C. for 2 hours, after which the medium was removed from each cup. Solubilization of the formazan crystals was achieved by adding 100 μl 2-propanol. Complete dissolution of the formazan crystals were obtained after the trays have been placed on a plate shaker for 10 min. Finally, the absorbances were read in an eight-channel computer-controlled photometer (Multiskan MCC, Flow Laboratories) at two wavelengths (540 and 690 nm). The absorbance measured at 690 nm was automatically subtracted from the absorbance at 540 nm, so as to eliminate the effects of non-specific absorption.
The percent protection against cytopathology caused by viruses (antiviral activity or EC50) achieved by tested compounds and their cytotoxicity (CC50) were both calculated from dose-response curves. The selectivity of the antiviral effect is represented by the selectivity index (SI), calculated by dividing the CC50 (cytotoxic dose for 50% of the cells) by the EC50 (antiviral activity for 50% of the cells).

| Compound | Activity |
| --- | --- |
| Cc1cccc(NCc2ccc3nc(N)n(Cc4nc(C)ccc4O)c3c2)c1 [Compound 1, 2-[2-Amino-6-(mtolylamino-methyl)-benzoimidazol-1-ylmethyl]-6-methyl-pyridin-3-ol] | 8.6 |
| Cc1ccc(O)c(Cn2c(N)nc3ccc(CNc4cc(Cl)cc(Cl)c4)cc32)n1 [Compound 2] | 8.6 |
| Cc1ccc(O)c(Cn2c(N)nc3ccc(CNc4cccc(Br)c4)cc32)n1 [Compound 3] | 8.6 |
| Cc1ccc(O)c(Cn2c(N)nc3ccc(CNc4cccc(Cl)c4)cc32)n1 [Compound 5] | 8.5 |
| C#Cc1cccc(NCc2ccc3nc(N)n(Cc4nc(C)ccc4O)c3c2)c1 [Compound 6] | 8.5 |
| CC(=O)O.COc1ccccc1NCc1ccc2nc(N)n(Cc3nc(C)ccc3O)c2c1 [Compound 7] | 8.5 |
| Cc1cc(C)cc(NCc2ccc3nc(N)n(Cc4nc(C)ccc4O)c3c2)c1 [Compound 9] | 8.4 |
| Cc1ccc(O)c(Cn2c(N)nc3ccc(CNc4ccc(S(N)(=O)=O)cc4)cc32)n1 [Compound 10] | 8.4 |
| Cc1ccc(O)c(Cn2c(N)nc3ccc(CNc4ccccc4CO)cc32)n1 [Compound 11] | 8.4 |
| CC(=O)O.CCc1ccccc1NCc1ccc2nc(N)n(Cc3nc(C)ccc3O)c2c1 [Compound 12] | 8.4 |
| Cc1ccc(O)c(Cn2c(N)nc3ccc(CNc4ccc(C#N)cc4)cc32)n1 [Compound 13] | 8.4 |
| CCOC(=O)c1ccc(NCc2ccc3nc(N)n(Cc4nc(C)ccc4O)c3c2)c(O)c1 [Compound 14] | 8.3 |
| CSc1cccc(NCc2ccc3nc(N)n(Cc4nc(C)ccc4O)c3c2)c1 [Compound 15] | 8.3 |
| CCc1cccc(CC)c1NCc1ccc2nc(N)n(Cc3nc(C)ccc3O)c2c1 [Compound 17] | 8.1 |
| CCc1cccc(NCc2ccc3nc(N)n(Cc4nc(C)ccc4O)c3c2)c1 [Compound 18] | 8.0 |
| Cc1ccc(O)c(Cn2c(N)nc3ccc(CNc4cccc(C)c4C)cc32)n1 [Compound 19] | 8.0 |
| Cc1ccc(O)c(Cn2c(N)nc3ccc(CNc4ccccc4Br)cc32)n1 [Compound 20] | 8.0 |
| Cc1ccc(O)c(Cn2c(N)nc3ccc(CNc4ccccc4)cc32)n1 [Compound 21] | 7.9 |
| Cc1ccc(O)c(Cn2c(N)nc3ccc(CNc4cccc(F)c4)cc32)n1 [Compound 22] | 7.9 |
| Cc1ccc(O)c(Cn2c(N)nc3ccc(CNc4ccc(C)c(C)c4)cc32)n1 [Compound 23] | 7.9 |
| CCOc1cccc(NCc2ccc3nc(N)n(Cc4nc(C)ccc4O)c3c2)c1 [Compound 24] | 7.9 |
| Cc1ccc(O)c(Cn2c(N)nc3ccc(CNc4ccccc4C#N)cc32)n1 [Compound 25] | 7.9 |

| Compound | Activity |
| --- | --- |
| Cc1ccc(O)c(Cn2c(N)nc3ccc(CNc4cccc(CO)c4)cc32)n1 [Compound 26] | 7.9 |
| Cc1ccc(O)c(Cn2c(N)nc3ccc(CNc4cccc(NS(C)(=O)=O)c4)cc32)n1 [Compound 27] | 7.9 |
| COc1ccc(NCc2ccc3nc(N)n(Cc4nc(C)ccc4O)c3c2)cc1F [Compound 28] | 7.8 |
| Cc1ccc(O)c(Cn2c(N)nc3ccc(CNc4cccc(Cl)c4C)cc32)n1 [Compound 29] | 7.8 |
| Cc1ccc(O)c(Cn2c(N)nc3ccc(CNc4cccc(SC(F)(F)F)c4)cc32)n1 [Compound 30] | 7.8 |
| Cc1ccc(O)c(Cn2c(N)nc3ccc(CNc4ccccc4C(C)C)cc32)n1 [Compound 32] | 7.8 |
| Cc1ccc(O)c(Cn2c(N)nc3ccc(CNc4cccc(S(=O)(=O)CCO)c4)cc32)n1 [Compound 33] | 7.8 |
| COc1cc(NCc2ccc3nc(N)n(Cc4nc(C)ccc4O)c3c2)cc(OC)c1 [Compound 34] | 7.7 |
| CC(=O)Nc1cccc(NCc2ccc3nc(N)n(Cc4nc(C)ccc4O)c3c2)c1 [Compound 35] | 7.7 |
| Cc1ccc(O)c(Cn2c(N)nc3ccc(CNc4ccc5c(c4)CCC5)cc32)n1 [Compound 36] | 7.7 |
| Cc1ccc(O)c(Cn2c(N)nc3ccc(CNc4cc(Br)cc(C(F)(F)F)c4)cc32)n1 [Compound 37] | 7.7 |
| Cc1ccc(O)c(Cn2c(N)nc3ccc(CNc4ccccc4C(N)=O)cc32)n1 [Compound 39] | 7.7 |
| Cc1ccc(O)c(Cn2c(N)nc3ccc(CNc4ccccc4F)cc32)n1 [Compound 40] | 7.7 |
| Cc1ccc(O)c(Cn2c(N)nc3ccc(CNc4cccc(C(=N)N)c4)cc32)n1 [Compound 41] | 7.7 |
| CC(=O)c1cccc(NCc2ccc3nc(N)n(Cc4nc(C)ccc4O)c3c2)c1 [Compound 42] | 7.6 |
| Cc1ccc(O)c(Cn2c(N)nc3ccc(CNc4ccc5c(c4)OCCO5)cc32)n1 [Compound 43] | 7.6 |
| Cc1ccc(O)c(Cn2c(N)nc3ccc(CNc4cccc5cccnc45)cc32)n1 [Compound 44] | 7.6 |
| Cc1ccc(O)c(Cn2c(N)nc3ccc(CNc4cc(F)cc(C(F)(F)F)c4)cc32)n1 [Compound 45] | 7.6 |
| Cc1ccc(O)c(Cn2c(N)nc3ccc(CNc4cccc(CC(=O)O)c4)cc32)n1 [Compound 46] | 7.6 |
| CCCCNS(=O)(=O)c1cccc(NCc2ccc3nc(N)n(Cc4nc(C)ccc4O)c3c2)c1 [Compound 47] | 7.6 |
| Cc1ccc(O)c(Cn2c(N)nc3ccc(CNc4ccccc4C(F)(F)F)cc32)n1 [Compound 48] | 7.6 |
| Cc1ccc(O)c(Cn2c(N)nc3ccc(CNc4cc(F)cc(F)c4)cc32)n1 [Compound 49] | 7.5 |

| Compound | Activity |
| --- | --- |
| CCc1cc(Br)ccc1NCc1ccc2nc(N)n(Cc3nc(C)ccc3O)c2c1 [Compound 52] | 7.5 |
| CC(=O)Nc1ccc(NCc2ccc3nc(N)n(Cc4nc(C)ccc4O)c3c2)cc1 [Compound 53] | 7.5 |
| Cc1ccc(O)c(Cn2c(N)nc3ccc(CNc4ccc(Br)cc4)cc32)n1 [Compound 54] | 7.5 |
| Cc1ccc(O)c(Cn2c(N)nc3ccc(CNc4ccc(F)c(F)c4)cc32)n1 [Compound 55] | 7.4 |
| Cc1ccc(O)c(Cn2c(N)nc3ccc(CNc4ccc(Br)c(C)c4)cc32)n1 [Compound 56] | 7.4 |
| COc1cc(NCc2ccc3nc(N)n(Cc4nc(C)ccc4O)c3c2)cc(C(F)(F)F)c1 [Compound 57] | 7.4 |
| CC(=O)O.Cc1ccc(O)c(Cn2c(N)nc3ccc(CNc4ccccc4-c4ccccc4)cc32)n1 [Compound 58] | 7.4 |
| CCOC(=O)c1cccc(NCc2ccc3nc(N)n(Cc4nc(C)ccc4O)c3c2)c1 [Compound 59] | 7.3 |
| Cc1ccc(O)c(Cn2c(N)nc3ccc(CNc4ccc(C)c(F)c4)cc32)n1 [Compound 60] | 7.3 |
| COc1ccc(NCc2ccc3nc(N)n(Cc4nc(C)ccc4O)c3c2)cc1OC [Compound 61] | 7.3 |
| Cc1ccc(O)c(Cn2c(N)nc3ccc(CNc4ccc(Br)c(C(F)(F)F)c4)cc32)n1 [Compound 62] | 7.3 |
| Cc1ccc(O)c(Cn2c(N)nc3ccc(CNc4ccc(Br)c(F)c4)cc32)n1 [Compound 63] | 7.3 |
| COC(=O)c1cc(NCc2ccc3nc(N)n(Cc4nc(C)ccc4O)c3c2)cc(C(=O)OC)c1 [Compound 64] | 7.3 |
| Cc1ccc(NCc2ccc3nc(N)n(Cc4nc(C)ccc4O)c3c2)cc1 [Compound 67] | 7.3 |
| CCOC(=O)c1ccccc1NCc1ccc2nc(N)n(Cc3nc(C)ccc3O)c2c1 [Compound 68] | 7.2 |
| CC(=O)c1ccccc1NCc1ccc2nc(N)n(Cc3nc(C)ccc3O)c2c1 [Compound 69] | 7.2 |
| Cc1ccc(O)c(Cn2c(N)nc3ccc(CNc4ccccc4C(C)(C)C)cc32)n1 [Compound 70] | 7.2 |
| Cc1ccc(O)c(Cn2c(N)nc3ccc(CNc4cccc(Oc5ccccc5)c4)cc32)n1 [Compound 71] | 7.1 |
| Cc1ccc(O)c(Cn2c(N)nc3ccc(CNc4cc(Cl)c(O)c(Cl)c4)cc32)n1 [Compound 72] | 7.1 |
| Cc1ccc(O)c(Cn2c(N)nc3ccc(CNc4cc(C(F)(F)F)cc(C(F)(F)F)c4)cc32)n1 [Compound 74] | 7.1 |
| COc1ccc(NCc2ccc3nc(N)n(Cc4nc(C)ccc4O)c3c2)cc1O [Compound 75] | 7 |
